# According to patent publication US11389466B2 (priority 2017, dated 2022):
# “And” between values parts separate entries of the source, which are not always exact repeats. Identical values can stand only once. Like-named read-outs stand apart in the source and are kept apart here.
# Key:
# AFL lectin = AFL lectin (Aspergillus fumigatus, UniProt Q4WW81); assay: biochemical; format: binding; settings: for Stoichiometry: amount of ligand bound to a single protein; for β (β-factor, relative potency per ligand): β=(Kd)monovalent/[(Kd)multivalent×Valency], calculated from methylfucoside
# Chain of AFL lectin (Q4WW81 whole entry): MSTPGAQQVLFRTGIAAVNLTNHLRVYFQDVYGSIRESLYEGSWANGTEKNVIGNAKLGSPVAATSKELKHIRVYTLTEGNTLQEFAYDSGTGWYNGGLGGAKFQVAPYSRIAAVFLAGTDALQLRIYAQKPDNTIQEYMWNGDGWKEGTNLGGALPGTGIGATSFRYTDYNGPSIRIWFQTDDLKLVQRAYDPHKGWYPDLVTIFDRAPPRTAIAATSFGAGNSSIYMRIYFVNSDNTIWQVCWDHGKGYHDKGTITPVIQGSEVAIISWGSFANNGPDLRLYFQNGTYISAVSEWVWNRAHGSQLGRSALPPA
# [1] = tested on: Aspergillus fumigatus conidia (adhesion on pneumocytes A549); format: cell-based
# [2] = Table 2, second batch of purified AFL protein
Structure (SMILES),Kd (AFL lectin),"−TΔS (AFL lectin; Table 1, first AFL batch)","−ΔG (AFL lectin; Table 1, first AFL batch)","−ΔH (AFL lectin; Table 1, first AFL batch)","Stoichiometry (AFL lectin; Table 1, first AFL batch)","β (β-factor, relative potency per ligand) (AFL lectin)",Kd (AFL lectin; [2]),N (stoichiometry) (AFL lectin; [2]),−TΔS (AFL lectin; [2]),−ΔG (AFL lectin; [2]),−ΔH (AFL lectin; [2]),other results
C[C@@H]1O[C@@H](OCc2cn(CCOCCOCCOCCn3cc(CO[C@@H]4O[C@@H](C)[C@@H](O)[C@@H](O)[C@@H]4O)nn3)nn2)[C@@H](O)[C@H](O)[C@@H]1O [Compound 24],3800 ± 300 nM,11 ± 0.72 kcal/mol,7.41 ± 0.048 kcal/mol,18.4 ± 0.72 kcal/mol,2.12 and 2.12 ± 0.03,68,–,–,–,–,–,decrease of the adhesion of the conidia ([1]; 100 μM in fucose equivalent): 37%
C[C@@H]1O[C@@H](OCc2cn(CCOCCOCCOCCOCCOCCOCCOCCOCCOCCOCCOCCn3cc(CO[C@@H]4O[C@@H](C)[C@@H](O)[C@@H](O)[C@@H]4O)nn3)nn2)[C@@H](O)[C@H](O)[C@@H]1O [Compound 26],550 nM,8.6 ± 0.14 kcal/mol,8.58 ± 0.22 kcal/mol,17.7 ± 1.4 kcal/mol,2.35 and 2.35 ± 0.31,470,–,–,–,–,–,residual adhesion of the conidia on the pneumocytes ([1]; 10 μM in fucose equivalent): 76%
CC1OC(OCCOCCOCc2cn(CC3OC4OC5C(Cn6cc(COCCOCCOC7OC(C)C(O)C(O)C7O)nn6)OC(OC6C(Cn7cc(COCCOCCOC8OC(C)C(O)C(O)C8O)nn7)OC(OC7C(Cn8cc(COCCOCCOC9OC(C)C(O)C(O)C9O)nn8)OC(OC8C(Cn9cc(COCCOCCOC%10OC(C)C(O)C(O)C%10O)nn9)OC(OC9C(Cn%10cc(COCCOCCOC%11OC(C)C(O)C(O)C%11O)nn%10)OC(OC3C(O)C4O)C(O)C9O)C(O)C8O)C(O)C7O)C(O)C6O)C(O)C5O)nn2)C(O)C(O)C1O (stereo not drawn) [Compound 29],–,30 ± 0.14 kcal/mol,8.48 ± 0.024 kcal/mol,38.5 ± 0.24 kcal/mol,1.01 ± 0.02,144,530 ± 40 nM,1.20 ± 0.09,32.53 ± 3.61 kcal/mol,8.58 ± 0.048 kcal/mol,41.06 ± 3.66 kcal/mol,"Kd (AFL lectin; Table 1, first AFL batch): 600 nM; Kd values (in words) (AFL lectin; first AFL batch): sub-micromolar range; enthalpic contribution, times higher than the reference monovalent compound 33 (AFL lectin; first AFL batch): 2.7; increase of the −TΔS factor versus the reference monovalent compound (AFL lectin; first AFL batch): 3.3; formation of spore agglomerates (microscope observation) ([1]; A. fumigatus spores, compound 29 at 10 μM): formation of A. fumigatus spore agglomerates"
CC1OC(OCCOCCOCCOCCOCc2cn(CC3OC4OC5C(Cn6cc(COCCOCCOCCOCCOC7OC(C)C(O)C(O)C7O)nn6)OC(OC6C(Cn7cc(COCCOCCOCCOCCOC8OC(C)C(O)C(O)C8O)nn7)OC(OC7C(Cn8cc(COCCOCCOCCOCCOC9OC(C)C(O)C(O)C9O)nn8)OC(OC8C(Cn9cc(COCCOCCOCCOCCOC%10OC(C)C(O)C(O)C%10O)nn9)OC(OC9C(Cn%10cc(COCCOCCOCCOCCOC%11OC(C)C(O)C(O)C%11O)nn%10)OC(OC3C(O)C4O)C(O)C9O)C(O)C8O)C(O)C7O)C(O)C6O)C(O)C5O)nn2)C(O)C(O)C1O (stereo not drawn) [Compound 30],–,43.3 ± 1.9 kcal/mol,9.18 ± 0.048 kcal/mol,52.6 ± 1.9 kcal/mol,0.77 ± 0.04,479,130 ± 10 nM,0.95 ± 0.02,40.49 ± 0.14 kcal/mol,9.39 ± 0.072 kcal/mol,49.93 ± 0.239 kcal/mol,"Kd (AFL lectin; Table 1, first AFL batch): 180 nM; Kd (AFL lectin; first AFL batch): 180 nM; Kd values (in words) (AFL lectin; first AFL batch): sub-micromolar range; enthalpic contribution, times higher than the reference monovalent compound 33 (AFL lectin; first AFL batch): 3.7; increase of the −TΔS factor versus the reference monovalent compound (AFL lectin; first AFL batch): 4.7"
"C[C@@H]1O[C@@H](OCc2cn(CCOCCOCCOCCO)nn2)[C@@H](O)[C@H](O)[C@@H]1O [Compound 33, reference compound]",167000 nM,9.08 ± 2.2 kcal/mol,5.26 ± 0.24 kcal/mol,14.3 ± 1.9 kcal/mol,4.0 ± 0.3,3,–,–,–,–,–,anti-adhesive activity (in words) ([1]; concentrations of 1 and 10 μM in fucose equivalent): absence of anti-adhesive activity
CC1OC(OCc2cn(CCOCCOCCOCCSCC[Si]34O[Si]5(CCSCCOCCOCCOCCn6cc(COC7OC(C)C(O)C(O)C7O)nn6)O[Si]6(CCSCCOCCOCCOCCn7cc(COC8OC(C)C(O)C(O)C8O)nn7)O[Si](CCSCCOCCOCCOCCn7cc(COC8OC(C)C(O)C(O)C8O)nn7)(O3)O[Si]3(CCSCCOCCOCCOCCn7cc(COC8OC(C)C(O)C(O)C8O)nn7)O[Si](CCSCCOCCOCCOCCn7cc(COC8OC(C)C(O)C(O)C8O)nn7)(O4)O[Si](CCSCCOCCOCCOCCn4cc(COC7OC(C)C(O)C(O)C7O)nn4)(O5)O[Si](CCSCCOCCOCCOCCn4cc(COC5OC(C)C(O)C(O)C5O)nn4)(O6)O3)nn2)C(O)C(O)C1O (stereo not drawn) [Compound 40],400 ± 70 nM,–,–,–,–,–,–,–,–,–,–,N (stoichiometry) (AFL lectin): 0.84 ± 0.02; −TΔS (AFL lectin): 51.82 ± 4.04 kcal/mol; −ΔG (AFL lectin): 8.75 ± 0.096 kcal/mol; −ΔH (AFL lectin): 60.44 ± 4.06 kcal/mol
CC1OC(OCc2cn(CC3OC4OC5C(Cn6cc(COC7OC(C)C(O)C(O)C7O)nn6)OC(OC6C(Cn7cc(COC8OC(C)C(O)C(O)C8O)nn7)OC(OC7C(Cn8cc(COC9OC(C)C(O)C(O)C9O)nn8)OC(OC8C(Cn9cc(COC%10OC(C)C(O)C(O)C%10O)nn9)OC(OC9C(Cn%10cc(COC%11OC(C)C(O)C(O)C%11O)nn%10)OC(OC3C(O)C4O)C(O)C9O)C(O)C8O)C(O)C7O)C(O)C6O)C(O)C5O)nn2)C(O)C(O)C1O (stereo not drawn) [Compound 44],–,–,–,–,–,–,1940 ± 500 nM,1.36 ± 0.01,21.6 ± 0.621 kcal/mol,7.82 ± 0.17 kcal/mol,29.37 ± 0.454 kcal/mol,–
"OC[C@H]1O[C@@H]2O[C@H]3[C@H](O)[C@@H](O)[C@@H](O[C@H]4[C@H](O)[C@@H](O)[C@@H](O[C@H]5[C@H](O)[C@@H](O)[C@@H](O[C@H]6[C@H](O)[C@@H](O)[C@@H](O[C@H]7[C@H](O)[C@@H](O)[C@@H](O[C@H]1[C@H](O)[C@H]2O)O[C@@H]7CO)O[C@@H]6CO)O[C@@H]5CO)O[C@@H]4CO)O[C@@H]3CO [free α-cyclodextrine, α-cyclodextrine, reference compound]",–,–,–,–,–,–,–,–,–,–,–,affinity for the AFL lectin (in words) (AFL lectin): no affinity
"CO[C@@H]1O[C@@H](C)[C@@H](O)[C@@H](O)[C@@H]1O [αMeFuc, methylfucoside, reference compound]",–,6.41 kcal/mol,4.04 kcal/mol,11.5 kcal/mol,5,–,–,3.3 ± 0.42,9.97 ± 1.48 kcal/mol,5.4 ± 0.0048 kcal/mol,15.4 ± 1.48 kcal/mol,"Kd (AFL lectin; Table 1, first AFL batch, read-out: Kd): 517000 nM; Kd (AFL lectin; Table 2, second batch of purified AFL protein, read-out: Kd): 110000 nM"
